Source: US8633245B2, “PAI-1 inhibitor” (Institute of Medicinal Molecular Design, Inc., priority 2008, dated 2014)

Target: T1, recombinant human PAI-1 (Homo sapiens, UniProt P05121)
T1 construct: purchased Molecular Innovations, Inc
Assay: Test Example 1: human PAI-1 inhibitory activity (tPA fluorogenic substrate, pH 7.5 Tris buffer)
Type: biochemical
Conditions: Tris buffer
Protocol: 50 mM Tris, 150 mM NaCl, 10 μg/ml BSA, 0.01% Tween80 (SIGMA-ALDRICH Corporation)

T1 sequence (P05121 24-402): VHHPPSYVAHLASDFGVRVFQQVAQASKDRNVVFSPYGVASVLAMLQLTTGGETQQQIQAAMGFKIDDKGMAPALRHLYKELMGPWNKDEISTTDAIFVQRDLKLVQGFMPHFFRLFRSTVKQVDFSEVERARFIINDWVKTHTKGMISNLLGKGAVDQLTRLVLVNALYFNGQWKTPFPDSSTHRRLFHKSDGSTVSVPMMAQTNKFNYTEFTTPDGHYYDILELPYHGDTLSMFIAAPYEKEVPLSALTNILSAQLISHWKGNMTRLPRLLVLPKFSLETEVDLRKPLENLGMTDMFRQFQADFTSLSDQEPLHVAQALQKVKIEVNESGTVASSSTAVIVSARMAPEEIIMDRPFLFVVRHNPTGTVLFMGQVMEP

CC(C)(C)c1ccc(COc2ccc(-c3cccc(C(=O)O)c3)cc2CCC(=O)O)cc1 [Compound 26]
Inhibition Rate of PAI-1 Activity (%) (Compound Concentration 10 μM): 9% | Inhibition Rate of PAI-1 Activity (%) (Compound Concentration 25 μM): 25%

O=C(O)CCc1cc(-c2ccc(OC(F)(F)F)cc2)ccc1OCc1ccc(Cl)cc1Cl [Compound 27]
Inhibition Rate of PAI-1 Activity (%) (Compound Concentration 5 μM): 5% | Inhibition Rate of PAI-1 Activity (%) (Compound Concentration 10 μM): 29% | Inhibition Rate of PAI-1 Activity (%) (Compound Concentration 25 μM): 92%

O=C(O)CCc1cc(-c2ccc(OC(F)(F)F)cc2)ccc1OCc1ccc(-c2ccccc2)cc1 [Compound 29]
Inhibition Rate of PAI-1 Activity (%) (Compound Concentration 5 μM): 21% | Inhibition Rate of PAI-1 Activity (%) (Compound Concentration 10 μM): 56% | Inhibition Rate of PAI-1 Activity (%) (Compound Concentration 25 μM): 88%

CC(C)(C)c1ccc(COc2ccc(-c3ccccc3)cc2/C=C/C(=O)O)cc1 [Compound 31]
Inhibition Rate of PAI-1 Activity (%) (Compound Concentration 5 μM): 21% | Inhibition Rate of PAI-1 Activity (%) (Compound Concentration 10 μM): 49% | Inhibition Rate of PAI-1 Activity (%) (Compound Concentration 25 μM): 89%

CC(C)(C)c1ccc(COc2ccc(-c3ccccc3)cc2CCC(=O)O)cc1 [Compound 32]
Inhibition Rate of PAI-1 Activity (%) (Compound Concentration 5 μM): 22% | Inhibition Rate of PAI-1 Activity (%) (Compound Concentration 10 μM): 47% | Inhibition Rate of PAI-1 Activity (%) (Compound Concentration 25 μM): 97%

CC(C)(C)c1ccc(COc2ccc(-c3ccc(F)cc3)cc2/C=C/C(=O)O)cc1 [Compound 33]
Inhibition Rate of PAI-1 Activity (%) (Compound Concentration 5 μM): 23% | Inhibition Rate of PAI-1 Activity (%) (Compound Concentration 10 μM): 53% | Inhibition Rate of PAI-1 Activity (%) (Compound Concentration 25 μM): 96%

CC(C)(C)c1ccc(COc2ccc(-c3ccc(F)cc3)cc2CCC(=O)O)cc1 [Compound 34]
Inhibition Rate of PAI-1 Activity (%) (Compound Concentration 5 μM): 24% | Inhibition Rate of PAI-1 Activity (%) (Compound Concentration 10 μM): 53% | Inhibition Rate of PAI-1 Activity (%) (Compound Concentration 25 μM): 99%

CC(C)(C)c1ccc(COc2ccc(-c3ccc(C(F)(F)F)cc3)cc2/C=C/C(=O)O)cc1 [Compound 35]
Inhibition Rate of PAI-1 Activity (%) (Compound Concentration 5 μM): 28% | Inhibition Rate of PAI-1 Activity (%) (Compound Concentration 10 μM): 57% | Inhibition Rate of PAI-1 Activity (%) (Compound Concentration 25 μM): 95%

CC(C)(C)c1ccc(COc2ccc(-c3ccc(C(F)(F)F)cc3)cc2CCC(=O)O)cc1 [Compound 36]
Inhibition Rate of PAI-1 Activity (%) (Compound Concentration 5 μM): 23% | Inhibition Rate of PAI-1 Activity (%) (Compound Concentration 10 μM): 60% | Inhibition Rate of PAI-1 Activity (%) (Compound Concentration 25 μM): 99%

COc1ccc(-c2ccc(OCc3ccc(C(C)(C)C)cc3)c(/C=C/C(=O)O)c2)cc1 [Compound 37]
Inhibition Rate of PAI-1 Activity (%) (Compound Concentration 5 μM): 23% | Inhibition Rate of PAI-1 Activity (%) (Compound Concentration 10 μM): 47% | Inhibition Rate of PAI-1 Activity (%) (Compound Concentration 25 μM): 84%

COc1ccc(-c2ccc(OCc3ccc(C(C)(C)C)cc3)c(CCC(=O)O)c2)cc1 [Compound 38]
Inhibition Rate of PAI-1 Activity (%) (Compound Concentration 5 μM): 14% | Inhibition Rate of PAI-1 Activity (%) (Compound Concentration 10 μM): 34% | Inhibition Rate of PAI-1 Activity (%) (Compound Concentration 25 μM): 93%

CC(C)(C)c1ccc(COc2ccc(-c3ccc(C(C)(C)C)cc3)cc2/C=C/C(=O)O)cc1 [Compound 39]
Inhibition Rate of PAI-1 Activity (%) (Compound Concentration 5 μM): 25% | Inhibition Rate of PAI-1 Activity (%) (Compound Concentration 10 μM): 56% | Inhibition Rate of PAI-1 Activity (%) (Compound Concentration 25 μM): 94%

CC(C)(C)c1ccc(COc2ccc(-c3ccc(C(C)(C)C)cc3)cc2CCC(=O)O)cc1 [Compound 40]
Inhibition Rate of PAI-1 Activity (%) (Compound Concentration 5 μM): 22% | Inhibition Rate of PAI-1 Activity (%) (Compound Concentration 10 μM): 66% | Inhibition Rate of PAI-1 Activity (%) (Compound Concentration 25 μM): >99%

CCCCc1ccc(-c2ccc(OCc3ccc(C(C)(C)C)cc3)c(CCC(=O)O)c2)cc1 [Compound 43]
Inhibition Rate of PAI-1 Activity (%) (Compound Concentration 5 μM): 29% | Inhibition Rate of PAI-1 Activity (%) (Compound Concentration 10 μM): 66% | Inhibition Rate of PAI-1 Activity (%) (Compound Concentration 25 μM): 94%

CSc1ccc(-c2ccc(OCc3ccc(C(C)(C)C)cc3)c(/C=C/C(=O)O)c2)cc1 [Compound 44]
Inhibition Rate of PAI-1 Activity (%) (Compound Concentration 5 μM): 16% | Inhibition Rate of PAI-1 Activity (%) (Compound Concentration 10 μM): 25% | Inhibition Rate of PAI-1 Activity (%) (Compound Concentration 25 μM): 21%

CC(C)(C)c1ccc(-c2ccc(OCc3ccccc3)c(/C=C/C(=O)O)c2)cc1 [Compound 47]
Inhibition Rate of PAI-1 Activity (%) (Compound Concentration 5 μM): 22% | Inhibition Rate of PAI-1 Activity (%) (Compound Concentration 10 μM): 47% | Inhibition Rate of PAI-1 Activity (%) (Compound Concentration 25 μM): 91%

CC(C)(C)c1ccc(-c2ccc(OCc3ccccc3)c(CCC(=O)O)c2)cc1 [Compound 48]
Inhibition Rate of PAI-1 Activity (%) (Compound Concentration 5 μM): 20% | Inhibition Rate of PAI-1 Activity (%) (Compound Concentration 10 μM): 50% | Inhibition Rate of PAI-1 Activity (%) (Compound Concentration 25 μM): 93%

CC(C)(C)c1ccc(-c2ccc(OCc3ccc(OC(F)(F)F)cc3)c(/C=C/C(=O)O)c2)cc1 [Compound 51]
Inhibition Rate of PAI-1 Activity (%) (Compound Concentration 5 μM): 32% | Inhibition Rate of PAI-1 Activity (%) (Compound Concentration 10 μM): 69% | Inhibition Rate of PAI-1 Activity (%) (Compound Concentration 25 μM): 94%
